# Data: patent US5240928A, “Substituted quinazolinones as angiotensin II antagonists” (Merck & Co., Inc., priority 1991, dated 1993)
# Assay: pKa
# Type: physicochemical
smiles,measurement,value
CCCc1nc2ccc(C)cc2c(=O)n1Cc1ccc(-c2ccccc2-c2nn[nH]n2)cc1 [Example 76],pKa,4.7
